Experimental findings from patent US11351168B1 (Celgene CAR LLC, priority 2008, dated 2022) are described below.

The subject of this experiment is BTK signaling in Ramos cells. Briefly: BTK Ramos cellular assay (phosphorylation of BTK substrate PLCγ2). The following applies: Homo sapiens, 1 hour compound, anti-IgM stimulation, read-out: BTK Inhibition (Ramos cellular). Format: cell-based, human. How it is done: Compounds I-2, I-4, and I-7 were assayed in Ramos human Burkitt lymphoma cells. Ramos cells were grown in suspension in T225 flasks, spun down, resuspended in 50 ml serum-free media and incubated for 1 hour. Compound was added to Ramos cells in serum free media to a final concentration of 1, 0.1, 0.01, or 0.001 μM. Ramos cells were incubated with compound for 1 hour, washed again and resuspended in 100 ul serum-free media. Cells were then stimulated with 1 μg of goat F(ab′)2 Anti-Human IgM and incubated on ice for 10 minutes to activate B cell receptor signaling pathways. After 10 minutes, the cells were washed once with PBS and then lysed on ice with Invitrogen Cell Extraction buffer. 16 μg total protein from lysates were loaded on gel and blots were probed for phosphorylation of the BTK substrate PLCγ2.

For `C=CC(=O)Nc1cccc(Nc2nc(Nc3cccc(OCC(C)(C)O)c3)ncc2F)c1` [Compound I-118, N-(3-(5-fluoro-2-(3-(2-hydroxy-2-methylpropoxy)phenylamino)pyrimidin-4-ylamino)phenyl)acrylamide], the IC50 is < 10 nM.

Consider `C=CC(=O)N(C)Cc1cccc(Nc2nc(Nc3ccccc3)ncc2C)c1` [Compound I-220, N-methyl-N-(3-(5-methyl-2-(phenylamino)pyrimidin-4-ylamino)benzyl)acrylamide], for which the IC50 fell in the range of 10 to 100 nM.

Consider `C=CC(=O)N1CCc2cc(Nc3nc(Nc4cccc(S(N)(=O)=O)c4)ncc3C)ccc2C1` [Compound I-40, 3-(4-(2-acryloyl-1,2,3,4-tetrahydroisoquinolin-6-ylamino)-5-methylpyrimidin-2-ylamino)benzenesulfonamide], for which the IC50 was 10 to 100 nM.

In the case of `C=CC(=O)Nc1cc(Nc2nc(Nc3ccc(OC(C)C)nc3)ncc2F)ccc1Cl` [Compound I-107, N-(2-chloro-5-(5-fluoro-2-(6-isopropoxypyridin-3-ylamino)pyrimidin-4-ylamino)phenyl)acrylamide], the IC50 was in the range of 10 to 100 nM.

With `C=CC(=O)Nc1cccc(Nc2nc(Nc3cccc(S(N)(=O)=O)c3)ncc2C)c1` [Compound I-33, N-(3-(5-methyl-2-(3-sulfamoylphenylamino)pyrimidin-4-ylamino)phenyl)acrylamide], the IC50 was < 10 nM.

Take `C=CC(=O)Nc1cccc(Nc2nc(Nc3cccc(OCCO)c3)ncc2F)c1` [Compound I-105, N-(3-(5-fluoro-2-(3-(2-hydroxyethoxy)phenylamino)pyrimidin-4-ylamino)phenyl)acrylamide]: the IC50 was < 10 nM.

Take `C=CC(=O)Nc1cccc(Nc2nc(Nc3ccc(OCCCNC(=O)OC(C)(C)C)cc3)ncc2F)c1` [Compound I-198, tert-butyl 3-(4-(4-(3-acrylamidophenylamino)-5-fluoropyrimidin-2-ylamino)phenoxy)propylcarbamate]: the IC50 was < 10 nM.

As to `C=CC(=O)N1CCOc2ccc(Nc3nc(Nc4ccc(N(C)C(=O)C(F)(F)F)nc4)ncc3C(C)=O)cc21` [Compound I-142, N-(5-(5-acetyl-4-(4-acryloyl-3,4-dihydro-2H-benzo[b][1,4]oxazin-6-ylamino)pyrimidin-2-ylamino)pyridin-2-yl)-2,2,2-trifluoro-N-methylacetamide], the IC50 is 10 to 100 nM.

In the case of `C=CC(=O)Nc1cccc(Nc2nc(Nc3ccc4[nH]ncc4c3)ncc2F)c1` [Compound I-156], the IC50 is < 10 nM.

As for `C=CC(=O)Nc1cccc(Nc2nc(Nc3ccc(OCCOC)nc3)ncc2C(C)=O)c1` [Compound I-122, N-(3-{5-Acetyl-2-[6-(2-methoxy-ethoxy)-pyridin-3-ylamino]-pyrimidin-4-ylamino}-phenyl)-acrylamide], the IC50 was < 10 nM.

For `C=CC(=O)Nc1cccc(Nc2nc(Nc3ccc(OCc4ccccn4)c(Cl)c3)ncc2F)c1` [Compound I-86, N-(3-(2-(3-chloro-4-(pyridin-2-ylmethoxy)phenylamino)-5-fluoropyrimidin-4-ylamino)phenyl)acrylamide], the IC50 is < 10 nM.

On to `C=CC(=O)Nc1cccc(Nc2nc(Nc3ccc(OCCOC)cc3)ncc2C2CC2)c1` [Compound I-139, N-(3-(5-cyclopropyl-2-(4-(2-methoxyethoxy)phenylamino)pyrimidin-4-ylamino)phenyl)acrylamide], for which the IC50 fell in the range of 10 to 100 nM.

On to `C=CC(=O)Nc1cccc(Nc2nc(Nc3ccc(Cl)c(OCCOC)c3)ncc2F)c1` [Compound I-321, N-(3-(2-(4-chloro-3-(2-methoxyethoxy)phenylamino)-5-fluoropyrimidin-4-ylamino)phenyl)acrylamide], for which the IC50 was < 10 nM.

Consider `C=CC(=O)N1CCC[C@@H](Nc2nc(Nc3cccc(Cl)c3)ncc2F)C1` [Compound I-147, (R)-1-(3-(2-(3-chlorophenylamino)-5-fluoropyrimidin-4-ylamino)piperidin-1-yl)prop-2-en-1-one], for which the IC50 was in the range of 10 to 100 nM.

With `C=CC(=O)Nc1cccc(Nc2nc(Nc3ccc(OC)nc3)ncc2OC)c1` [Compound I-192, N-(3-(5-methoxy-2-(6-methoxypyridin-3-ylamino)pyrimidin-4-ylamino)phenyl)acrylamide], the IC50 lay within 10 to 100 nM.

For the compound `C=CC(=O)Nc1cccc(Oc2nc(Nc3ccc(OC)nc3)ncc2C)c1` [Compound I-186, N-(3-(2-(6-methoxypyridin-3-ylamino)-5-methylpyrimidin-4-yloxy)phenyl)acrylamide], the IC50 is < 10 nM.

Consider `C=CC(=O)N1CCOc2ccc(Nc3nc(Nc4ccc(OC)nc4)ncc3F)cc21` [Compound I-194, 1-(6-(5-fluoro-2-(6-methoxypyridin-3-ylamino)pyrimidin-4-ylamino)-2H-benzo[b][1,4]oxazin-4(3H)-yl)prop-2-en-1-one], for which the IC50 is < 10 nM.

With `C=CC(=O)Nc1cccc(Nc2ncc(F)c(Nc3cccc(C)c3)n2)c1` [Compound I-3, N-(3-(5-fluoro-4-(m-tolylamino)pyrimidin-2-ylamino)phenyl) acrylamide], the IC50 fell in the range of 10 to 100 nM.

Consider `C=CC(=O)Nc1cccc(Oc2nc(Nc3ccc(OC)nc3)ncc2F)c1` [Compound I-217], for which the IC50 was < 10 nM.

Take `C=CC(=O)Nc1cccc(Oc2nc(Nc3cccc(OC)c3)ncc2C(=O)NC2CC2)c1` [Compound I-177, 4-(3-acrylamidophenoxy)-2-(3-methoxyphenylamino)-pyrimidine-5-carboxylic acid cyclopropylamide]: the IC50 fell in the range of 100 to 1000 nM.

Regarding `C=CC(=O)Nc1cccc(Nc2nc(Nc3cccc(OCCCn4ccnc4)c3)ncc2F)c1` [Compound I-204, N-(3-(2-(3-(3-(1H-imidazol-1-yl)propoxy)phenylamino)-5-fluoropyrimidin-4-ylamino)phenyl)acrylamide], the IC50 is < 10 nM.

Consider `C=CC(=O)Nc1cccc(Nc2nc(Nc3ccc(OC(C)C)nc3)ncc2F)c1` [Compound I-172, N-(3-(5-fluoro-2-(6-isopropoxypyridin-3-ylamino)pyrimidin-4-ylamino)phenyl)acrylamide], for which the IC50 is < 10 nM.

Consider `C=CC(=O)Nc1cc(Nc2nc(Nc3ccc(OCCOC)cc3)ncc2F)ccc1F` [Compound I-87, N-(2-fluoro-5-(5-fluoro-2-(4-(2-methoxyethoxy)phenylamino)pyrimidin-4-ylamino)phenyl)acrylamide], for which the IC50 is < 10 nM.

Turning to `C=CC(=O)Nc1cccc(Oc2nc(Nc3ccc(OC)nc3)ncc2C(=O)Nc2ccccc2)c1` [Compound I-159, 4-(3-acrylamidophenoxy)-2-(6-methoxypyridin-3-ylamino)-pyrimidine-5-carboxylic acid phenylamide], the IC50 fell in the range of 100 to 1000 nM.

Regarding `C=CC(=O)N1CCOc2ccc(Nc3nc(Nc4ccc(N5CCOCC5)cc4)ncc3C(C)=O)cc21` [Compound I-169, 1-{6-[5-Acetyl-2-(4-morpholin-4-yl-phenylamino)-pyrimidin-4-ylamino]-2,3-dihydro-benzo[1,4]oxazin-4-yl}-propenone], the IC50 is < 10 nM.

Consider `C=CC(=O)Nc1ccc(C)c(Nc2ncc(C)c(Nc3cccc(C)c3)n2)c1` [Compound I-8, N-(4-methyl-3-(5-methyl-4-(m-tolylamino)pyrimidin-2-ylamino)phenyl)acrylamide], for which the IC50 was in the range of 100 to 1000 nM.

Consider `C=CC(=O)Nc1cccc(Nc2nc(Nc3ccc4c(c3)N(C(=O)C(F)(F)F)CCO4)ncc2F)c1` [Compound I-143, N-(3-(2-(4-trifluoroacetyl-2,3-dihydrobenzo[1,4]oxazin-6-yl)amino-5-fluoropyrimidin-4-ylamino)phenyl)acrylamide], for which the IC50 was < 10 nM.

Turning to `C=CC(=O)Nc1cccc(Nc2nc(Nc3ccc(OCCCS(C)(=O)=O)nc3)ncc2F)c1` [Compound I-80, N-(3-(5-fluoro-2-(6-(3-(methylsulfonyl)propoxy)pyridin-3-ylamino)pyrimidin-4-ylamino)phenyl)acrylamide], the IC50 was < 10 nM.

Take `C=CC(=O)Nc1cccc(Nc2nc(Nc3ccc(N(C)CCOC)nc3)ncc2F)c1` [Compound I-77, N-(3-(5-fluoro-2-(6-((2-methoxyethyl)(methyl)amino)pyridin-3-ylamino)pyrimidin-4-ylamino)phenyl)acrylamide]: the IC50 was < 10 nM.

For the compound `C=CC(=O)Nc1cccc(Nc2nc(Nc3ccc(OC)nc3)ncc2C#N)c1` [Compound I-173, N-(3-(5-cyano-2-(6-methoxypyridin-3-ylamino)pyrimidin-4-ylamino)phenyl)acrylamide], the IC50 is < 10 nM.

For `C=CC(=O)Nc1cccc(Nc2nc(Nc3ccccc3)ncc2C#N)c1` [Compound I-157, N-(3-(5-cyano-2-(phenylamino)pyrimidin-4-ylamino)phenyl)acrylamide], the IC50 is < 10 nM.

`C=CC(=O)Nc1cccc(Nc2nc(Nc3ccccc3)ncc2C(F)(F)F)c1` [Compound I-245, N-(3-(5-trifluoromethyl-2-(phenylamino)pyrimidin-4-ylamino)phenyl)acrylamide]: the IC50 was < 10 nM.

For the compound `C=CC(=O)Nc1cccc(Nc2nc(Nc3ccc4c(c3)N(C)CCO4)ncc2F)c1` [Compound I-126, N-(3-(2-(4-methyl-2,3-dihydrobenzo[1,4]oxazin-6-yl)amino-5-fluoropyrimidin-4-ylamino)phenyl)acrylamide], the IC50 was in the range of 10 to 100 nM.

With `C=CC(=O)Nc1cccc(Nc2nc(Nc3cccc(OC)c3)ncc2C(N)=O)c1` [Compound I-210, 4-(3-acrylamidophenylamino)-2-(3-methoxyphenylamino)pyrimidine-5-carboxamide], the IC50 was < 10 nM.

Regarding `C=CC(=O)Nc1cccc(Nc2nc(Nc3ccc(Cl)c(OCC(C)(C)O)c3)ncc2F)c1` [Compound I-249, N-(3-(2-(4-chloro-3-(2-hydroxy-2-methylpropoxy)phenylamino)-5-fluoropyrimidin-4-ylamino)phenyl)acrylamide], the IC50 is < 10 nM.
